From patent US20190290620A1, “APPLICATIONS OF NOVEL THIAZOLE DERIVATIVE IN TREATING INFLAMMATORY BOWEL DISEASES” (EAST CHINA UNIVERSITY OF SCIENCE AND TECHNOLOGY, priority 2016, published 2019)
Marks after values point to notes of the source that are not given here.

System: TNBS-induced ulcerative colitis model mice
Assay: TNBS-induced mice ulcerative colitis model
Assay type: in vivo, BALB/c male mice
Set-up: key to Scores of gross morphological damages: 0 = no adhesion/ulcer/inflammation, 4+ = severe ulcers (+1 per cm)
Details: for Score (body weight index according to the disease activity index, DAI): 0-4 points by weight decrease; for Score (body weight index according to the disease activity index, DAI) / Length of the colon / Weight of the colon / Histopathology scores / Scores of gross morphological damages / weight/length ratio (average) of colon: ig 7 days, sulfasalazine 500 mg/kg; for Score (body weight index according to the disease activity index, DAI) / Length of the colon / Weight of the colon / Histopathology scores / Scores of gross morphological damages / weight/length ratio (average) of colon / Ratio of weight loss: compound 20 mg/kg; for Length of the colon / Weight of the colon: 24 hours after last administration; for Histopathology scores: H&E colon sections, epithelial cells and inflammatory cell infiltration points; for Scores of gross morphological damages: colon adhesion, ulceration, inflammation points; for weight/length ratio (average) of colon: colon weight (g) / length (cm); for Ratio of weight loss: ig daily for 7 days from day of modeling, positive drug sulfasalazine 500 mg/kg, 10 mice per group
Description: BALB/c male mice (each 18-22 g) of SPF level were purchased from Shanghai Slack Laboratory Animal Co., Ltd. and were used in experiments after adaptive feeding for 7 days.
BALB/c male mice were kept in an animal cage (daylight and darkness of 12 hours, respectively) at a temperature of 20-25° C. and relative humidity of 50-60%, free access to food and water.
Mice were randomly divided into normal control group, trinitrobenzenesulfonic acid (TNBS) model group, drug treatment group and positive drug control group (sulfasalazine 500 mg/kg).
All of the mice in model group and administration group were shaved in the abdomen (area 2×2 cm) and sensitized with 1% TNBS (dissolved in 50% ethanol). On the 7th day, the mice were fasted, but not water. After 24 hours, the mice were anesthetized through intraperitoneal injection of 0.1 ml of 10% chloral hydrate and 2% TNBS was used for lavation to establish a mouse model of ulcerative colitis. A gavage needle for rat was inserted into the colon of a mouse, the tip of the needle was about 3˜3.5 cm away from the anus, and 0.1 ml of modeling solution (5% TNBS and deionized water were mixed at a volume ratio of 4:1, and the obtained solution was mixed with absolute ethanol at a volume ratio of 1:1, so as to obtain the modeling solution) was injected. The mice were put back into the cage and wake up naturally. The mice in the normal control group were injected with 0.12 ml of solvent (50% ethanol solution) by the same manner.
Administration was started on the day of modeling (using 0.5% sodium carboxymethylcellulose, CMC-Na) for 7 consecutive days.
At 24 hours after the last administration, the mice were sacrificed by cervical dislocation, the peritoneum was cut open, and the whole colon was taken. The intestine was cut longitudinally along the mesenteric margin, rinsed with ice physiological saline, placed on ice, and the pathological changes of the colon were observed. The fat and mesentery were removed, the water was blotted with filter paper, the weight of the colon was weighed and the length was measured. The colon was fixed in 4% formaldehyde for more than 24 hours, dehydrated, paraffin-embedded and H&E stained, and the pathological sections were observed.
The mice were observed and recorded daily for mental state, fur color, and activities. The mice was weighed daily and observed for the stool traits. The body weight index according to the disease activity index (DAI) is as follows:
After the colon of a mouse was removed, the weight of the colon was measured with a precision electronic balance, the length was measured with a vernier caliper, and the weight/length ratio of the colon was calculated.
The criteria for scores were: no adhesion, no ulcer, no inflammation, 0 points; mild adhesion, local congestion, no ulcer, 1 point; severe adhesion, 1 ulcer (area less than 1 cm), no obvious inflammation, 2 points; more than 1 ulcers (area less than 1 cm) with inflammation, 3 points; 2 severe ulcers (area greater than 1 cm) with inflammation, 4 points; and 1 point for each 1 cm increase in ulcer area.
Pathological changes of colon tissue were observed under light microscope, and the scores were recorded. The criteria for scores are as follows:
1) Epithelial cells: normal morphology, 0 points; loss of goblet cells, 1 point; large loss of goblet cells, 2 points; loss of crypt cells, 3 points; large loss of crypt cells, 4 points.
2) Infiltration of inflammatory cells: no infiltration, 0 points; infiltration in the basal layer of the crypt, 1 point; infiltration to the muscular layer of the mucosa, 2 points; infiltration to the muscular layer of the mucosa with mucosal thickening and obvious edema, 3 points; infiltration to the submucosal layer, 4 points.
Data were expressed as […] (mean±S.E.M.), data were analyzed using SPSS statistical software, and one-way ANOVA and Tukey's HSD post hoc test were used for comparison between groups. p<0.05 was considered statistically significant.

| SMILES | Score (body weight index according to the disease activity index, DAI) | Length of the colon | Weight of the colon | Histopathology scores | Scores of gross morphological damages | weight/length ratio (average) of colon | Ratio of weight loss | diarrhea of the mice (general condition) (FIG. 2, TNBS-mediated UC model BALB/c mice, Compound 16 in three different dosage groups, sulfasalazine control group) | effect on colonic lesions, comparison of dosages (FIG. 3, 5 mg/kg) | extent of ulcer lesions of colon and visceral adhesions (FIG. 3, compound 312 at 5 mg/kg, 20 mg/kg, 50 mg/kg and positive drugs, vs model group) | histopathology of colon, comparison of dosages (FIG. 4, 5 mg/kg and 50 mg/kg vs 20 mg/kg) | histopathology of colon (HE staining, mucosal integrity / lesions) (FIG. 4, compared with the model group) |
| --- | --- | --- | --- | --- | --- | --- | --- | --- | --- | --- | --- | --- |
| CN(/N=C/c1ccccc1C(=O)O)c1nc(-c2ccccc2Cl)cs1 [Compound 1, (E)-4-(2-chlorophenyl)-2-[1-methyl-2-(2-carboxybenzylidene)hydrazino]thiazole] | 1 | 5.575 ± 0.452 cm | 0.162 ± 0.027 g | 2.54 ± 0.62 | 2.32 ± 0.69 | 0.029# | 2.61 ± 4.53 |  |  |  |  |  |
| CCN(/N=C/c1ccccc1C(=O)O)c1nc(-c2ccccc2Cl)cs1 [Compound 2, (E)-4-(2-chlorophenyl)-2-[1-ethyl-2-(2-carboxybenzylidene)hydrazino]thiazole] | 1 |  |  | 3.10 ± 0.55 | 3.37 ± 0.60 |  | 1.22 ± 3.68 |  |  |  |  |  |
| CCCN(/N=C/c1ccccc1C(=O)O)c1nc(-c2ccccc2Cl)cs1 [Compound 3, (E)-4-(2-chlorophenyl)-2-[1-propyl-2-(2-carboxybenzylidene)hydrazino]thiazole] | 2 | 5.699 ± 0.368 cm | 0.159 ± 0.023 g |  |  | 0.028# | 4.26 ± 4.65 |  |  |  |  |  |
| CN(/N=C/c1ccc(C(F)(F)F)cc1C(=O)O)c1nc(-c2ccccc2Cl)cs1 [Compound 8, (E)-4-(2-chlorophenyl)-2-[1-methyl-2-(4-trifluoromethyl-2-carboxybenzylidene)hydrazino]thiazole] | 1 | 6.005 ± 0.452 cm | 0.157 ± 0.027 g | 1.59 ± 0.68 | 1.42 ± 0.78 | 0.026# | 1.07 ± 2.98 |  |  |  |  |  |
| O=C(O)c1cc(C(F)(F)F)ccc1/C=N/Nc1nc(-c2ccccc2Cl)cs1 [Compound 8-1] | 1 |  |  |  |  |  | 3.72 ± 1.60 |  |  |  |  |  |
| Cc1ccc(/C=N/N(C)c2nc(-c3ccccc3Cl)cs2)c(C(=O)O)c1 [Compound 9, (E)-4-(2-chlorophenyl)-2-[1-methyl-2-(4-methyl-2-carboxybenzylidene)hydrazino]thiazole] | 1 |  |  |  |  |  | 3.29 ± 4.70 |  |  |  |  |  |
| Cc1ccc(/C=N/Nc2nc(-c3ccccc3Cl)cs2)c(C(=O)O)c1 [Compound 9-1] |  | 5.985 ± 0.363 cm | 0.152 ± 0.023 g | 3.94 ± 0.51 | 3.63 ± 0.71 | 0.025# |  |  |  |  |  |  |
| CN(/N=C/c1ccc(F)cc1C(=O)O)c1nc(-c2ccccc2Cl)cs1 [Compound 10, (E)-4-(2-chlorophenyl)-2-[1-methyl-2-(2-carboxyl-4-fluorobenzylidene)hydrazino]thiazole] | 1 | 6.321 ± 0.436 cm | 0.162 ± 0.045 g | 2.09 ± 0.44 | 1.02 ± 0.41 | 0.026# | 1.92 ± 3.20 |  |  |  |  |  |
| Cc1sc(N(C)/N=C/c2ccccc2C(=O)O)nc1-c1ccccc1 [Compound 12, (E)-5-methyl-4-phenyl-2-[11-methyl-2-(2-carboxybenzylidene)hydrazino]thiazole] | 1 | 5.075 ± 0.468 cm | 0.154 ± 0.012 g |  |  | 0.030# | 2.33 ± 2.99 |  |  |  |  |  |
| Cc1sc(N/N=C/c2ccccc2C(=O)O)nc1-c1ccccc1Cl [Compound 15, (E)-5-methyl-4-(2-chlorophenyl)-2-(2-carboxylbenzylidenehydrazino)thiazole] |  | 5.546 ± 0.402 cm | 0.163 ± 0.023 g |  |  | 0.029# |  |  |  |  |  |  |
| O=C(O)c1ccccc1/C=N/Nc1nc(-c2ccccc2Cl)cs1 [Compound 16, (E)-4-(2-chlorophenyl)-2-(2-carboxybenzylidenehydrazino)thiazole] | 1 |  |  | 2.54 ± 0.49 | 2.22 ± 0.54 |  | 3.55 ± 1.47 | relieved compared with the model group | best effect on colonic lesions | can improve the extent of ulcer lesions of colon and visceral adhesions | more effective than those at 20 mg/kg | mucosal integrity was improved to a greater extent |
| Cc1sc(N/N=C/c2ccccc2C(=O)O)nc1-c1ccccc1 [Compound 17, (E)-5-methyl-4-phenyl-2-(2-carboxylbenzylidenehydrazino)thiazole] |  | 5.124 ± 0.332 cm | 0.159 ± 0.034 g |  |  | 0.030# |  |  |  |  |  |  |
| CN(/N=C/c1ccccc1C(=O)O)c1nc(-c2ccccc2)cs1 [Compound 20, (E)-4-phenyl-2-[1-methyl-2-(2-carboxybenzylidene)hydrazino]thiazole] |  |  |  | 3.65 ± 0.42 | 3.33 ± 0.59 |  |  |  |  |  |  |  |
| CN(/N=C/c1ccccc1C(=O)O)c1nc(-c2cccc(Cl)c2)cs1 [Compound 21, (E)-4-(3-chlorophenyl)-2-[1-methyl-2-(2-carboxybenzylidene)hydrazino]thiazole] |  | 4.986 ± 0.452 cm | 0.158 ± 0.025 g | 2.54 ± 0.62 | 2.31 ± 0.79 | 0.032# |  |  |  |  |  |  |
| CN(/N=C/c1cc(F)c(F)cc1C(=O)O)c1nc(-c2ccccc2Cl)cs1 [Compound 23] | 3 | 4.997 ± 0.476 cm | 0.153 ± 0.027 g | 2.32 ± 0.58 | 2.02 ± 0.60 | 0.030# | 6.27 ± 2.76 |  |  |  |  |  |
| O=C(O)c1ccccc1/C=N/Nc1nc(-c2cc(Cl)ccc2Cl)cs1 [Compound 55, (E)-2-((2-(4-(2,5-dichlorophenyl)thiazol-2-yl)hydrazono)methyl)benzoic Acid] | 1 | 5.675 ± 0.222 cm | 0.148 ± 0.033 g | 1.68 ± 0.32 | 1.99 ± 0.52 | 0.026# | 2.74 ± 4.61 |  |  |  |  |  |
| O=C(O)c1c(F)cccc1/C=N/Nc1nc(-c2ccccc2Cl)cs1 [Compound 58, (E)-2-((2-(4-(2-chlorophenyl)thiazol-2-yl)hydrazono)methyl)-6-fluorobenzoic Acid] |  | 5.575 ± 0.392 cm | 0.162 ± 0.028 g | 3.59 ± 0.61 | 4.32 ± 0.79 | 0.029# |  |  |  |  |  |  |
